Experiments:
Type in all cases: physicochemical
[1] = MEKC lipophilicity (SDS micelles, pH 7.4); details: 50 mM SDS, HEPES/TRIS buffer pH 7.4, 25 °C
Description: All MEKC experiments were carried out with a P/ACE MDQ plus system (Sciex, Framingham, MA, USA) equipped with photodiode array detector (PDA) and controlled by 32 Karat software (version 10.2). The uncoated fused silica capillaries (50 µm i.d., Polymicro Technologies, West Yorkshire, UK) of 60 cm total length and 50.2 cm effective length were used. Prior to analysis, the capillary was rinsed with 0.1 M NaOH for 30 min, ultrapure water for 10 min, and background electrolyte (BGE) for 30 min. After each analysis, the capillary was conditioned with BGE for 2 min. The applied pressure for all rinsing operations was 345 kPa. The analytes were dissolved in BGE at concentration of 100 µg/mL with addition of quinine (micelles marker). As electroosmotic flow (EOF) marker, DMSO was used. The samples were hydrodynamically injected at 35 kPa for 5 s. The separations were performed by applying voltage of 20 kV with positive polarity and constant temperatures at 25 ± 0.1 °C. The BGE consisted of aqueous solution of 50 mM SDS and 120 mM HEPES /100 mM TRIS buffer of pH 7.4. The BGE was prepared each working day by dilution of stock solution. Detection was carried out at 200 and 280 nm with 8 Hz probing frequency. The logarithm of retention factor logk was calculated according to the equation introduced by Terabe and co-workers:(10) logkMEKC=log(tR−tEOF/tEOF(1−tR/tMC)) The established logk parameters are summarized in Table 2.

[2] = RP-TLC lipophilicity, silica gel C18, methanol-water; details: for C 0: RP-TLC silica gel C18, C0 = −RM^0/b; for PC1: RP-TLC silica gel C18, first principal component of RM values, contains 86.92% of information; for mRM: RP-TLC silica gel C18, mean value of RM; for R M ^0: RP-TLC silica gel C18, methanol-water 40 to 70% (v/v), intercept of Soczewiński–Wachtmeister equation; for b: RP-TLC silica gel C18, slope of Soczewiński–Wachtmeister equation
Description: (§1) The ready-to-use TLC glass plates covered by octadecyl(C18)- and octyl(C8)-modified TLC silica layers were purchased from Merck (Darmstadt, Germany). Stock solutions (5 µL) of the analytes were spotted manually on the plates with the use of a micropipette from Brand (Wertheim, Germany). The mobile phases were prepared by mixing appropriate volumes of pure organic solvents and water (in step gradient by 10% (v/v)), in the following proportions: (a) methanol–water ranging from 30 to 70% (v/v), in the case of C8-bonded silica gel stationary phase; and (b) methanol–water ranging from 40 to 70% (v/v), in the case of C18-bonded silica gel stationary phase.
(§2) Before analysis, the chromatographic chamber (Twin Trough Chambers from CAMAG Philadelphia, USA) was saturated for 20 min. All TLC experiments were performed at room temperature (22 ± 2 °C). Chromatograms were developed using the ascending technique to a distance of 8 cm. The investigated substances were visualized under UV light at λ = 366 nm by CAMAG UV Lamp 4 and the Viewing Box 4 (Philadelphia, USA). […] The obtained retardation factors (RF) were collected in the Supplementary data sheets. The retention parameter, RM, was calculated for each compound according to the Bate-Smith and Westall formula: (7) RM=log(1/RF−1) and listed in Table S2. Next, the Soczewiński–Wachtmeister’s equation: RM = RM^0 + bC(8) was used in order to determine the basic lipophilic RP-TLC parameter RM^0 as well as commonly used hydrophobic constants m. Soczewiński–Wachtmeister’s equation presented a linear relationship between concentration of the organic solvent in mobile phase (C) and RM value. Moreover, mean value of RM was used for lipophilicity assessments.
(§3) Furthermore, C0 RP-TLC lipophilicity parameter, introduced by Bieganowska, has been calculated according to the formula:(9) C0=−RM^0/b.
(§4) The C0 parameter corresponds to the parameter φ0, previously proposed for the HPLC. This parameter relates to the concentration of the organic component in the mobile phase for which the distribution of the analyzed substance between the mobile and stationary phase is equal (1:1).
(§5) Also, the principal component analysis (PCA) was applied in order to extract information regarding the lipophilicity of solutes and formulate them as the first principal component (PC1). Calculation data matrixes included RM values of solutes for each modifier concentration in the mobile phase.

[3] = RP-TLC lipophilicity, silica gel C8, methanol-water; details: for C 0: RP-TLC silica gel C8, C0 = −RM^0/b; for PC1: RP-TLC silica gel C8, first principal component of RM values, contains 83.57% of information; for mRM: RP-TLC silica gel C8, mean value of RM; for R M ^0: RP-TLC silica gel C8, methanol-water 30 to 70% (v/v), intercept of Soczewiński–Wachtmeister equation; for b: RP-TLC silica gel C8, slope of Soczewiński–Wachtmeister equation
Description: as §1, §2, §3, §4, §5

SMILES	logk [1]	C 0 [2]	PC1 [2]	mRM [2]	R M ^0 [2]	b [2]	C 0 [3]	PC1 [3]	mRM [3]	R M ^0 [3]	b [3]	logk ([1]; listed as pipemidic acid)
CCn1cc(C(=O)O)c(=O)c2cc(F)c(N3CC[N+]4(CC3)CN3C(=N4)C(C(=O)O)=Cc4ccccc43)cc21.[Cl-] [Compound 1]	−0.104	1.21	0.72	0.96	1.65	−1.36	1.04	−2.23	1.03	1.99	−1.92	–
COc1c(N2CC[N+]3(CN4C(=N3)C(C(=O)O)=Cc3ccccc34)C(C)C2)c(F)cc2c(=O)c(C(=O)O)cn(C3CC3)c12.[Cl-] (stereo not shown) [Compound 2]	−0.125	0.84	0.81	0.95	2.78	−3.31	0.89	−2.22	1.01	2.31	−2.61	–
O=C(O)C1=Cc2ccccc2N2C[N+]3(CCN(c4cc5c(cc4F)c(=O)c(C(=O)O)cn5C4CC4)CC3)N=C12.[Cl-] [Compound 8]	−0.153	1.07	1.18	0.89	1.83	−1.71	1.09	−1.26	0.93	1.71	−1.56	–
CCn1cc(C(=O)O)c(=O)c2cnc(N3CC[N+]4(CC3)CN3C(C)=CC(C)=C(C(=O)O)C3=N4)nc21.[Cl-] [Compound 10]	–	1.22	2.53	0.70	1.27	−1.04	1.28	0.79	0.71	1.16	−0.91	–
CCn1cc(C(=O)O)c(=O)c2cc(F)c(N3CC[N+]4(CC3)CN3C(C)=CC(C)=C(C(=O)O)C3=N4)nc21.[Cl-] [Compound 11]	−0.398	1.08	1.51	0.84	1.72	−1.59	1.06	−0.54	0.84	1.59	−1.50	–
CCn1cc(C(=O)O)c(=O)c2cc(F)c(N3CC[N+]4(CC3)CN3C(=N4)C(C(=O)O)=Cc4ccccc43)nc21.[Cl-] [Compound 7]	−0.239	1.17	0.48	0.99	1.87	−1.60	1.23	−2.01	1.05	1.76	−1.43	–
COc1c(N2CC3CCC[N+]4(CN5C(=N4)C(C(=O)O)=Cc4ccccc45)C3C2)c(F)cc2c(=O)c(C(=O)O)cn(C3CC3)c12.[Cl-] (stereo not shown) [Compound 15]	−0.250	0.84	−1.12	1.24	3.56	−4.21	0.91	−3.52	1.19	2.63	−2.88	–
O=C(O)c1cn(C2CC2)c2cc(N3CCNCC3)c(F)cc2c1=O [Compound 22, ciprofloxacin, reference compound]	–	1.30	−3.88	1.62	2.79	−2.15	1.61	−5.04	1.41	2.04	−1.27	–
CCn1cc(C(=O)O)c(=O)c2cc(F)c(N3CCNC(C)C3)c(F)c21 (stereo not shown) [Compound 17, reference compound]	0.077	1.15	−1.08	1.22	2.33	−2.03	1.34	−4.09	1.29	2.06	−1.54	–
CCn1cc(C(=O)O)c(=O)c2cc(F)c(N3CC[N+]4(CN5C(=N4)C(C(=O)O)=Cc4ccccc45)C(C)C3)c(F)c21.[Cl-] (stereo not shown) [Compound 5]	−0.265	0.93	0.88	0.94	2.29	−2.45	1.04	−1.69	0.98	1.90	−1.83	–
CCn1cc(C(=O)O)c(=O)c2cnc(N3CCNCC3)nc21 [Compound 19, pipemidic acid, reference compound]	−0.170	1.35	−1.24	1.24	2.39	−1.78	1.65	−3.91	1.30	1.87	−1.13	−0.1697
CC1=CC(C)=C(C(=O)O)C2=N[N+]3(CN12)C(C)CN(c1c(F)c(N)c2c(=O)c(C(=O)O)cn(C4CC4)c2c1F)CC3C.[Cl-] (stereo not shown) [Compound 14]	−0.261	0.86	1.32	0.88	2.45	−2.84	0.86	−1.79	0.96	2.29	−2.66	–
CCn1cc(C(=O)O)c(=O)c2cc(F)c(N3CC[N+]4(CC3)CN3C(C)=CC(C)=C(C(=O)O)C3=N4)cc21.[Cl-] [Compound 12]	−0.272	1.00	1.97	0.78	1.75	−1.75	1.00	−0.38	0.82	1.63	−1.63	–
CCn1cc(C(=O)O)c(=O)c2cnc(N3CC[N+]4(CC3)CN3C(=N4)C(C(=O)O)=Cc4ccccc43)nc21.[Cl-] [Compound 6]	–	1.23	0.53	0.98	1.78	−1.45	2.35	−1.73	1.04	1.32	−0.56	–
C[C@@H]1CN(c2c(F)c(N)c3c(=O)c(C(=O)O)cn(C4CC4)c3c2F)C[C@H](C)N1 [Compound 20, reference compound]	0.116	0.99	−1.40	1.28	2.85	−2.88	1.07	−3.81	1.21	2.27	−2.13	–
